From patent US10059701B2 (Merck Patent GmbH, priority 2015, dated 2018) come the findings set out here.

Each structure is given as a SMILES string. Structures can show the parent of a compound that is named as a salt.

What is called IC50 is the concentration needed to halve the response being measured.

One experiment has as its target T1, IRAK1 (Homo sapiens, UniProt P51617).
T1 construct: His-TEV-IRAK1 (194-712); His (N); TEV cleavage site (N)
Put plainly: IRAK1 enzymatic assay (ADP-Glo luminescence). It is filed as biochemical. To be noted: purified human recombinant His-TEV-IRAK1 (194-712). The procedure: IRAK1 is a human purified recombinant enzyme (His-TEV-IRAK1 (194-712))
In this assay, IRAK1 hydrolyses ATP and autophosphorylates. Measurement of IRAK-1 inhibition is performed in 384-well format based on luminescence assay (ADP-Glo™ Kinase Assay from Promega). Purified human recombinant IRAK1 (0.3 μg/ml) and serial diluted compounds in DMSO (range of concentration from 10 μM to 0.5 nM) or controls (1% DMSO) are incubated for 15 minutes at RT in assay buffer containing 50 mM Hepes pH 7.0, Fatty acid-free BSA 0.1%, Dithiothreitol (DTT) 2 mM, MgCl2 10 mM, EGTA 0.5 mM, Triton X-100 0.01%. The kinase reaction is then initiated by the addition of ATP […] After 2 hours of incubation at RT, the reaction is stopped and the unconsumed ATP depleted by the addition of ADP-Glo™ Reagent according to supplier instructions. After 40 minutes of incubation at RT, the Kinase Detection Reagent is then added to the assay plate according to supplier instructions. After 20 minutes of incubation at RT, the luminescence signal is measured with a luminometer (PerkinElmer Envision or equivalent reader).

The next experiment concerns the target T2, IRAK4 (Homo sapiens, UniProt Q9NWZ3).
T2 construct: His-TEV-IRAK4 (1-460); His (N); TEV cleavage site (N)
T2 sequence (Q9NWZ3 1-460): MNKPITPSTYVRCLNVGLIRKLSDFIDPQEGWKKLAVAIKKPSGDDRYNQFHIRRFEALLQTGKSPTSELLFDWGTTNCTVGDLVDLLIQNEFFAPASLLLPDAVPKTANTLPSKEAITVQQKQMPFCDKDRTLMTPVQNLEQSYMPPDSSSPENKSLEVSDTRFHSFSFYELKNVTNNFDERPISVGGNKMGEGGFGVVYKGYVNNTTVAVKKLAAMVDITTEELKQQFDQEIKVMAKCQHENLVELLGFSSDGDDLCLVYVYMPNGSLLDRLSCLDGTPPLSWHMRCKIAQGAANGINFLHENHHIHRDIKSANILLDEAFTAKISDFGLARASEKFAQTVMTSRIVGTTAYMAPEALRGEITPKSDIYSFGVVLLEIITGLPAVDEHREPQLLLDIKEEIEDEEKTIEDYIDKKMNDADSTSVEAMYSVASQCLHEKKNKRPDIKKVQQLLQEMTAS
The experiment is described as follows: IRAK4 enzymatic assay (ADP-Glo luminescence). It is filed as biochemical. To be noted: purified human recombinant His-TEV-IRAK4 (1-460), ATP 2 μM. The procedure: IRAK4 is a human purified recombinant enzyme (His-TEV-IRAK4 (1-460)).
In this assay, IRAK4 hydrolyses ATP, autophosphorylates and phosphorylates a Serine/Threonine generic peptidic substrate (STK: 61ST1BLC from CisBio International). Measurement of IRAK-4 inhibition is performed in 384-well format based on a luminescence assay (ADP-Glo™ Kinase Assay from Promega). Purified human recombinant IRAK4 (0.3 μg/ml) and serial diluted compounds in DMSO (range of concentration from 10 μM to 0.5 nM) or controls (1% DMSO) are incubated for 15 minutes at RT in assay buffer containing 50 mM Hepes pH 7.0, Fatty acid-free BSA 0.1%, Dithiothreitol (DTT) 2 mM, MgCl2 10 mM, EGTA 0.5 mM, Triton X-100 0.01%, MnCl2 5 mM. The kinase reaction is then initiated by the addition of ATP (2 μM) and the peptidic substrate STK1-biotin peptide (300 nM). After 2 hours of incubation at RT, the reaction is stopped and the unconsumed ATP depleted by the addition of ADP-Glo™ Reagent according to supplier instructions. After 40 minutes of incubation at RT, the Kinase Detection Reagent is then added to the assay plate according to supplier instructions. After 20 minutes of incubation at RT, the luminescence signal is measured with a plate-reading luminometer (PerkinElmer Envision or equivalent reader).
A general note: ADP-Glo first removes unused ATP, then detects ADP through luciferase.

T1 sequence (P51617 194-712): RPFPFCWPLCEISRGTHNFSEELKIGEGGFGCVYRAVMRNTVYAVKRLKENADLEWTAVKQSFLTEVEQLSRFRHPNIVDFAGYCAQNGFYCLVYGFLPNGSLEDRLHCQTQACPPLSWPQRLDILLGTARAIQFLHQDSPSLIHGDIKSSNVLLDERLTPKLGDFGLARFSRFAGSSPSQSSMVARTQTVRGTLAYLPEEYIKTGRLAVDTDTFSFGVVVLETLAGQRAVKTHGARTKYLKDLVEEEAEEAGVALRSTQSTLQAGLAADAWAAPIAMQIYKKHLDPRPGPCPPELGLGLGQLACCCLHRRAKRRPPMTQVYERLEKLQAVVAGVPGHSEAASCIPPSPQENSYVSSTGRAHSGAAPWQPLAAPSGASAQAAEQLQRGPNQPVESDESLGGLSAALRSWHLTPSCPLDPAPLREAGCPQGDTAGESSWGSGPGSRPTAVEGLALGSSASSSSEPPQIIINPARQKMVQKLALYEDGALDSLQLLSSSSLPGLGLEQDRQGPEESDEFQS

On to `Cc1cc2c(cc1N1CCOCC1=O)[nH]/c(=N\C(=O)c1cccc(C(F)(F)F)c1)n2CCCO` [Compound 70, (E)-N-(1-(3-hydroxypropyl)-6-methyl-5-(3-oxomorpholino)-1H-benzo[d]imidazol-2(3H)-ylidene)-3-(trifluoromethyl)benzamide], for which the figures for the 50% inhibitory concentration (IC50) on IRAK1 and on IRAK4 were 100 to 1000 nM and no more than 100 nM, respectively.

Regarding `O=C(/N=c1\[nH]c2cc(N3C(=O)CN(C4CC4)CC34CC4)ccc2n1CCCO)c1cccc(C(F)(F)F)c1` [Example 197, (E)-N-(5-(7-cyclopropyl-5-oxo-4,7-diazaspiro[2.5]octan-4-yl)-1-(3-hydroxypropyl)-1H-benzo[d]imidazol-2(3H)-ylidene)-3-(trifluoromethyl)benzamide], the IC50 at IRAK1 and at IRAK4 was no more than 100 nM throughout.

For the molecule `CC(=O)N1CCN(c2ccc3c(c2)[nH]/c(=N\C(=O)c2cccc(C(F)F)c2)n3CCCO)C(=O)C1` [Compound 110, (E)-N-(5-(4-acetyl-2-oxopiperazin-1-yl)-(1-(3-hydroxypropyl)-1H-benzo[d]imidazol-2(3H)-ylidene))-3-(difluoromethyl)benzamide], the IC50 at IRAK1 and on IRAK4 was no more than 100 nM each time.

Take `Cn1ncn(-c2ccc3c(c2)[nH]/c(=N\C(=O)c2cccc(C(F)(F)F)c2)n3CCCO)c1=O` [Compound 189, (E)-N-(1-(3-hydroxypropyl)-5-(1-methyl-5-oxo-4,5-dihydro-1H-1,2,4-triazol-4(5H)-yl)-1H-benzo[d]imidazol-2(3H)-ylidene)-3-(trifluoromethyl)benzamide]: the IC50 at IRAK1 and on IRAK4 was no more than 100 nM each time.

As for `O=C(/N=c1\[nH]c2cc(N3CCOCC3=O)cc(F)c2n1CCCO)c1cccc(C(F)(F)F)c1` [Example 210, (E)-N-(7-fluoro-1-(3-hydroxypropyl)-5-(3-oxomorpholino)-1H-benzo[d]imidazol-2(3H)-ylidene)-3-(trifluoromethyl)benzamide], the IC50 at IRAK1 is 100 to 1000 nM; at IRAK4, no more than 100 nM.

For the molecule `CS(=O)(=O)c1cccc(C(=O)/N=c2\[nH]c3cc(N4CCOCC4=O)ccc3n2[C@H]2CC[C@H](O)CC2)c1` [Compound 31, trans-(E)-N-(1-(4-hydroxycyclohexyl)-5-(3-oxomorpholino)-1H-benzo[d]imidazol-2(3H)-ylidene)-3-(methylsulfonyl)benzamide], the IC50 at IRAK1 and at IRAK4 was no more than 100 nM in each case.

For the molecule `O=C(/N=c1\[nH]c2cc(N3CCOCC3=O)ccc2n1CCCO)c1cccc(-n2cnnn2)c1` [Compound 83, (E)-N-(1-(3-hydroxypropyl)-5-(3-oxomorpholino)-1H-benzo[d]imidazol-2(3H)-ylidene)-3-(1H-tetrazol-1-yl)benzamide], the IC50 is 100 to 1000 nM on IRAK1 and no more than 100 nM on IRAK4.

As to `O=C(/N=c1\[nH]c2cc(N3CCOCC3=O)c(Br)cc2n1CCCO)c1cccc(C(F)(F)F)c1` [Compound 50, (E)-N-(6-bromo-1-(3-hydroxypropyl)-5-(3-oxomorpholino)-1H-benzo[d]imidazol-2(3H)-ylidene)-3-(trifluoromethyl)benzamide], the IC50 at IRAK1 was 100 to 1000 nM; at IRAK4, no more than 100 nM.

Turning to `COc1cc2c(cc1N1CCOCC1=O)[nH]/c(=N\C(=O)c1cccc(C(F)F)c1)n2CC1(CO)CC1` [Compound 52, (E)-3-(difluoromethyl)-N-(1-((1-(hydroxymethyl)cyclopropyl)methyl)-6-methoxy-5-(3-oxomorpholino)-1H-benzo[d]imidazol-2(3H)-ylidene)benzamide], the IC50 on IRAK1 and at IRAK4 was no more than 100 nM in each case.

With `CC(F)(F)Cn1/c(=N/C(=O)c2cccc(C(F)(F)F)c2)[nH]c2cc(N3CCCOC3=O)ccc21` [Compound 179, (E)-N-(1-(2,2-difluoropropyl)-5-(2-oxo-1,3-oxazinan-3-yl)-1H-benzo[d]imidazol-2(3H)-ylidene)-3-(trifluoromethyl)benzamide], the 50% inhibitory concentration (IC50) was 100 to 1000 nM on IRAK1 and no more than 100 nM on IRAK4.

As for `O=C(/N=c1\[nH]c2cc(N3CCOC3=O)ccc2n1CCCO)c1cccc(C(F)(F)F)c1` [Compound 8, (E)-N-(1-(3-hydroxypropyl)-5-(2-oxooxazolidin-3-yl)-1H-benzo[d]imidazol-2(3H)-ylidene)-3-(trifluoromethyl)benzamide], the IC50 is 100 to 1000 nM on IRAK1 and no more than 100 nM at IRAK4.

As to `N#Cc1cccc(C(=O)/N=c2\[nH]c3cc(N4CCOCC4=O)c(Br)cc3n2CCCO)c1` [Compound 48, (E)-N-(6-bromo-1-(3-hydroxypropyl)-5-(3-oxomorpholino)-1H-benzo[d]imidazol-2(3H)-ylidene)-3-cyanobenzamide], the IC50 at IRAK1 is 100 to 1000 nM; at IRAK4, no more than 100 nM.

For `O=C(/N=c1\[nH]c2cc(N3CCOCC3=O)ccc2n1C1CCNCC1)c1cccc(C(F)F)c1` [Compound 129, (E)-3-(difluoromethyl)-N-(5-(3-oxomorpholino)-1-(piperidin-4-yl)-1H-benzo[d]imidazole-2(3H)-ylidene)benzamide hydrochloride], the IC50 is 100 to 1000 nM at IRAK1 and no more than 100 nM on IRAK4.

`O=C(/N=c1\[nH]c2cc(N3CCOCC3=O)ccc2n1CCCO)c1cccc(Cl)c1` [Compound 106, (E)-3-chloro-N-(1-(3-hydroxypropyl)-5-(3-oxomorpholino)-1H-benzo[d]imidazol-2(3H)-ylidene)benzamide]: the IC50 was 100 to 1000 nM on IRAK1 and no more than 100 nM at IRAK4.

Turning to `O=C(/N=c1\[nH]c2cc(N3CCOCC3=O)ccc2n1C1CCCCC1)c1cccc(C(F)(F)F)c1` [Compound 45, (E)-N-(1-cyclohexyl-5-(3-oxomorpholino)-1H-benzo[d]imidazol-2(3H)-ylidene)-3-(trifluoromethyl)benzamide], the results for the IC50 on IRAK1 and at IRAK4 were greater than 1000 nM and 100 to 1000 nM, respectively.

For the molecule `O=C(/N=c1\[nH]c2cc(N3CCSCC3=O)ccc2n1CCCO)c1cccc(C(F)F)c1` [Compound 187, (E)-3-(difluoromethyl)-N-(1-(3-hydroxypropyl)-5-(3-oxothiomorpholino)-1H-benzo[d]imidazol-2(3H)-ylidene)benzamide], the IC50 at IRAK1 and at IRAK4 was no more than 100 nM throughout.

Regarding `O=C(/N=c1\[nH]c2cc(N3CCOCC3=O)ccc2n1CCCO)c1ccc2c(c1)COC2=O` [Compound 23, (E)-N-(1-(3-hydroxypropyl)-5-(3-oxomorpholino)-1H-benzo[d]imidazol-2(3H)-ylidene)-1-oxo-1,3-dihydroisobenzofuran-5-carboxamide], the results for the IC50 at IRAK1 and at IRAK4 were greater than 1000 nM and no more than 100 nM, respectively.

Turning to `O=C(/N=c1\[nH]c2cc(N3CCOCC3=O)ccc2n1C1CCNCC1)c1cccc(C(F)(F)F)c1` [Compound 128, (E)-N-(5-(3-oxomorpholino)-1-(piperidin-4-yl)-1H-benzo[d]imidazole-2(3H)-ylidene)-3-(trifluoromethyl)benzamide hydrochloride], the IC50 at IRAK1 was greater than 1000 nM; on IRAK4 it was no more than 100 nM.

For `CC(C)(C)Cn1/c(=N/C(=O)c2cccc(C(F)(F)F)c2)[nH]c2cc(N3CCCOC3=O)ccc21` [Compound 173, (E)-N-(1-neopentyl-5-(2-oxo-1,3-oxazinan-3-yl)-1H-benzo[d]imidazol-2(3H)-ylidene)-3-(trifluoromethyl)benzamide], the IC50 at IRAK1 is 100 to 1000 nM; on IRAK4, no more than 100 nM.

In the case of `O=C(/N=c1\[nH]c2cc(N3CCOCCC3=O)ccc2n1CCCO)c1cccc(C(F)F)c1` [Example 187, (E)-3-(difluoromethyl)-N-(1-(3-hydroxypropyl)-5-(5-oxo-1,4-oxazepan-4-yl)-1H-benzo[d]imidazol-2(3H)-ylidene)benzamide], the IC50 at IRAK1 and on IRAK4 was no more than 100 nM in each case.
